The values that follow are results of earlier work, collected in publication PMC5957517 (Biochimica et biophysica acta, 2018).

This series concerns MRSA infections. Conditions: ref [43],[44].

In the case of `CN[C@H](CC(C)C)C(=O)N[C@H]1C(=O)N[C@@H](CC(N)=O)C(=O)N[C@H]2C(=O)N[C@H]3C(=O)N[C@H](C(=O)N[C@H](C(=O)O)c4cc(O)cc(O)c4-c4cc3ccc4O)[C@H](O)c3ccc(c(Cl)c3)Oc3cc2cc(c3O[C@@H]2O[C@H](CO)[C@@H](O)[C@H](O)[C@H]2O[C@H]2C[C@](C)(N)[C@H](O)[C@H](C)O2)Oc2ccc(cc2Cl)[C@H]1O` [vancomycin], the reported clinical efficacy is on record as 35-57%.
